Measurements: patent publication US20250304623A1, “PEPTIDES FOR INTRACELLULAR DELIVERY” (UNIVERSIDADE DE SANTIAGO DE COMPOSTELA, priority 2022, published 2025)
*: point of attachment. NHNH2 = NN*

Tests used:
Format in all cases: cell-based
A549 cells = test: RLuc pDNA delivery, robotic library screening, A549
Summary of the method: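 A549 cells in DMEM+10% FBS were washed twice with PBS and exposed for 4 h to amphiphile/RLuc pDNA complexes prepared from DMSO stocks diluted in DMEM. After medium replacement and 72 hours, cells in HBSS were incubated at 37° C. for 30 minutes, basal then total luminescence measured after 5 μM coelenterazine h; background from untransfected cells was subtracted.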

Hela cells = test: RLuc pDNA delivery, robotic library screening, HeLa
[1] = tested on: ARPE19 cells expressing EGFP; test: EGFP-targeting siRNA delivery (GFP silencing vs siMOCK), ARPE19
Description: (§1) To generate an EGFP expressing HeLa cell line, HeLa cells were transfected with EGFP pDNA (pEGFP-C1, Clontech) and stable transfectants were selected with 400 μg/mL of G-418 (Millipore). Green clones were selected by epifluorescence microscopy and tested for EGFP expression stability through several passages. […] All other EGFP-expressing cell lines were obtained in a similar way from parent non-EGFP-expressing cell lines.
(§2) Cells expressing EGFP were seeded in a 96 well plate the day before the experiment at a concentration of 50,000 cell/mL (100 μL/w) in DMEM+10% FBS+1% Gln-Abt. For robotic library screening, the delivery of an EGFP-targeting siRNA (EGFP: enhanced green fluorescent protein, Ambion® Silencer® GFP Positive Control siRNA (siGFP) (AM4626)) in six different cell lines expressing EGFP was performed. […] The mixture was shaken for 30 min at room temperature (rt) before the addition to the cells. The cell medium was aspirated, and cells were washed twice with PBS. Finally, 50 μL of the solution of siRNA/amphiphile complexes were added to the cells and incubated for 4 h. After transfection, the medium was replaced by 100 μL of fresh DMEM supplemented with 10% FBS. The fluorescence knockdown was quantified after 72 h in a plate reader, by comparison with cells transfected with a non-targeting siRNA control (siMOCK, Silencer™ Negative Control No. 1 siRNA (siMOCK) (AM4611)). EGFP knockdown was compared with Lipofectamine® RNAiMAX silencing efficiency (30-60% depending on cell line, defined with a numeric value in the below tables). All experiments were done in triplicate.
(§3) Tables 1-7: RLuc (pDNA) or EGFP (mRNA) expression levels were normalized to Lipofectamine reagents (value=1) and expressed as fold-times signal increase. In the case of siRNA, the siRNA treated cells fluorescence was compared with siMOCK control fluorescence, while Cas9-RNP mediated knockout was measured against the fluorescence of untreated cells. In both siRNA and Cas9-RNP, values are expressed as % fluorescence reduction. Amphiphile concentration was 5 μM in all cases. All experiments were performed in triplicate.
(§4) Tables 20-25 show the mean (triplicates) percentage of GFP-silencing, accounted by fluorescence intensity decrease relative to a non-targeting siRNA (siMOCK) control, measured after the transfection of siRNA by different amphiphiles at different concentrations in a variety of cell lines. Background values, accounted by untreated control cells, were subtracted for processing.

[2] = tested on: Hek293 cells expressing EGFP; test: EGFP-targeting siRNA delivery (GFP silencing vs siMOCK), Hek293
Description: as §1, §2, §3, §4

| Substance | mean luminescent intensity (RLuc pDNA) (A549 cells; Petroselinyl, 15 μM) [RLU] | mean luminescent intensity (RLuc pDNA) (Hela cells; HeLa, Petroselinyl, 10 μM) [RLU] | mean luminescent intensity (RLuc pDNA) (Hela cells; Hela, Myristoleyl, 5 μM) [RLU] | mean luminescent intensity (RLuc pDNA) (Hela cells; Hela, Myristoleyl, 10 μM) [RLU] | mean luminescent intensity (RLuc pDNA) (Hela cells; Hela, Myristoleyl, 15 μM) [RLU] | mean luminescent intensity (RLuc pDNA) (Hela cells; Hela, Palmitoleyl, 5 μM) [RLU] | mean luminescent intensity (RLuc pDNA) (Hela cells; Hela, Palmitoleyl, 10 μM) [RLU] | mean luminescent intensity (RLuc pDNA) (Hela cells; Hela, Petroselinyl, 5 μM) [RLU] | percentage of GFP-silencing relative to siMOCK ([1]; Dodecanal, 5 μM) [%] | percentage of GFP-silencing relative to siMOCK ([1]; Dodecanal, 10 μM) [%] | percentage of GFP-silencing relative to siMOCK ([1]; Dodecanal, 15 μM) [%] | percentage of GFP-silencing relative to siMOCK ([1]; Palmitoleyl, 10 μM) [%] | percentage of GFP-silencing relative to siMOCK ([1]; Petroselinyl, 10 μM) [%] | percentage of GFP-silencing relative to siMOCK ([1]; Petroselinyl, 15 μM) [%] | percentage of GFP-silencing relative to siMOCK ([2]; Dodecanal, 5 μM) [%] | percentage of GFP-silencing relative to siMOCK ([2]; Dodecanal, 10 μM) [%] | percentage of GFP-silencing relative to siMOCK ([2]; Dodecanal, 15 μM) [%] | percentage of GFP-silencing relative to siMOCK ([2]; Myristoleyl, 15 μM) [%] | percentage of GFP-silencing relative to siMOCK ([2]; Oleyl, 10 μM) [%] | percentage of GFP-silencing relative to siMOCK ([2]; Palmitoleyl, 5 μM) [%] | also measured |
| --- | --- | --- | --- | --- | --- | --- | --- | --- | --- | --- | --- | --- | --- | --- | --- | --- | --- | --- | --- | --- | --- |
| Ac-RRHK*RLK*RRLK*RL-NH2 (Ac-RRHK(NHNH2)RLK(NHNH2)RRLK(NHNH2)RL-NH2; not fully specified; printed as Ac-RRHK*RLK*RRLK*RL-NH2; also: K*4,K*7,K*11: native or modified lysine (ε-amide to a linker)) [13(Leu-His)] | 2865 | 2037 | 7216 | 985 | −373 | 7854 | 3026 | 5527 | 27 | 31 | 41 | 26 | 34 | 13 | 43 | 18 | 57 | 9 | 62 | 26 | mean luminescent intensity (RLuc pDNA) (A549 cells; Oleyl, 5 μM): 17058 RLU; percentage of GFP-silencing relative to siMOCK ([1]; Myristoleyl, 10 μM): 25%; percentage of GFP-silencing relative to siMOCK ([1]; Myristoleyl, 15 μM): 0%; percentage of GFP-silencing relative to siMOCK ([1]; Oleyl, 10 μM): 26%; percentage of GFP-silencing relative to siMOCK ([1]; Oleyl, 15 μM): 15%; percentage of GFP-silencing relative to siMOCK ([1]; Palmitoleyl, 5 μM): 46%; percentage of GFP-silencing relative to siMOCK ([1]; Palmitoleyl, 15 μM): 24%; percentage of GFP-silencing relative to siMOCK ([2]; Myristoleyl, 5 μM): 41%; percentage of GFP-silencing relative to siMOCK ([2]; Myristoleyl, 10 μM): 37%; percentage of GFP-silencing relative to siMOCK ([2]; Oleyl, 15 μM): 21%; percentage of GFP-silencing relative to siMOCK ([2]; Petroselinyl, 5 μM): 43%; percentage of GFP-silencing relative to siMOCK ([2]; Petroselinyl, 10 μM): 43%; percentage of GFP-silencing relative to siMOCK ([2]; Petroselinyl, 15 μM): 33% |
| Ac-RRLK*RLK*RRLK*RL-NH2 [Peptide 13.3] | 2205 | 4639 | 17325 | 2310 | −37 | 18783 | 105810 | 657 | 29 | 51 | 37 | 11 | 13 | −42 | 52 | 44 | 48 | 25 | 2 | 42 | mean luminescent intensity (RLuc pDNA) (A549 cells; Dodecanal, 10 μM): 964 RLU; mean luminescent intensity (RLuc pDNA) (A549 cells; Dodecanal, 15 μM): 1174 RLU; mean luminescent intensity (RLuc pDNA) (A549 cells; Myristoleyl, 10 μM): 2097 RLU; mean luminescent intensity (RLuc pDNA) (A549 cells; Oleyl, 10 μM): 1248 RLU; mean luminescent intensity (RLuc pDNA) (A549 cells; Oleyl, 15 μM): 1919 RLU; mean luminescent intensity (RLuc pDNA) (A549 cells; Palmitoleyl, 10 μM): 2647 RLU; mean luminescent intensity (RLuc pDNA) (A549 cells; Palmitoleyl, 15 μM): 2262 RLU; mean luminescent intensity (RLuc pDNA) (Hela cells; HeLa, Dodecanal, 5 μM): 18306 RLU; mean luminescent intensity (RLuc pDNA) (Hela cells; Hela, Dodecanal, 10 μM): 23656 RLU; mean luminescent intensity (RLuc pDNA) (Hela cells; Hela, Oleyl, 15 μM): 1922 RLU; mean luminescent intensity (RLuc pDNA) (Hela cells; Hela, Palmitoleyl, 15 μM): 137093 RLU; mean luminescent intensity (RLuc pDNA) (Hela cells; Hela, Petroselinyl, 15 μM): 90989 RLU; percentage of GFP-silencing relative to siMOCK ([1]; Petroselinyl, 5 μM): 11%; percentage of GFP-silencing relative to siMOCK ([2]; Petroselinyl, 5 μM): 18%; percentage of GFP-silencing relative to siMOCK ([2]; Petroselinyl, 10 μM): 0%; percentage of GFP-silencing relative to siMOCK ([2]; Petroselinyl, 15 μM): 20% |
